Data: US4229533A, “Method for producing antibiotic C-15003 P-4” (priority 1977, dated 1980)

Columns and labels:
Rhodotorula ruba = assay: Activity against microorganisms; type: cell-based
Pellicularia sasakii = assay: Activity against microorganisms; type: cell-based
Cryptococcus neoformans = assay: Activity against microorganisms; type: cell-based
Fusicladium levieri = assay: Activity against microorganisms; type: cell-based
Cochlioborus miyabeanus = assay: Activity against microorganisms; type: cell-based
Trichophyton rubrum = assay: Activity against microorganisms; type: cell-based
Pyricularia oryzae = type: cell-based
Solubility = type: physicochemical
Proteus mirabilis = assay: Antimicrobial activity by the paper disc method; type: cell-based; conditions: 8 mm, 0.02 ml of a 300 μg/ml solution, trypticase-soy agar
Experimental: (§1) With trypticase-soy agar (BBL) as an assay medium, the inhibitory concentrations against the microorganisms described below were investigated by the paper disc method. Thus, filter-paper discs (Toyo Seisakusho, thin-type, 8 mm in dia.) each impregnated with 0.02 ml of a 300 μg/ml solution of P-4 were placed on agar plates respectively inoculated with the microorganisms described below. P-4 had no activity against the following bacteria. Escherichia coli, Proteus vulgaris, Proteus mirabilis, Pseudomonas aeruginosa, Staphylococcus aureus, Bacillus subtilis, Bacillus cereus, Klebsiella pneumoniae, Serratia marcescens and Mycobacterium avium

Bacillus subtilis = assay: Antimicrobial activity by the paper disc method; type: cell-based; conditions: 8 mm, 0.02 ml of a 300 μg/ml solution, trypticase-soy agar
Experimental: as §1

Pseudomonas aeruginosa = assay: Antimicrobial activity by the paper disc method; type: cell-based; conditions: 8 mm, 0.02 ml of a 300 μg/ml solution, trypticase-soy agar
Experimental: as §1

Klebsiella pneumoniae = assay: Antimicrobial activity by the paper disc method; type: cell-based; conditions: 8 mm, 0.02 ml of a 300 μg/ml solution, trypticase-soy agar
Experimental: as §1

Mycobacterium avium = assay: Antimicrobial activity by the paper disc method; type: cell-based; conditions: 8 mm, 0.02 ml of a 300 μg/ml solution, trypticase-soy agar
Experimental: as §1

Bacillus cereus = assay: Antimicrobial activity by the paper disc method; type: cell-based; conditions: 8 mm, 0.02 ml of a 300 μg/ml solution, trypticase-soy agar
Experimental: as §1

Escherichia coli = assay: Antimicrobial activity by the paper disc method; type: cell-based; conditions: 8 mm, 0.02 ml of a 300 μg/ml solution, trypticase-soy agar
Experimental: as §1

Serratia marcescens = assay: Antimicrobial activity by the paper disc method; type: cell-based; conditions: 8 mm, 0.02 ml of a 300 μg/ml solution, trypticase-soy agar
Experimental: as §1

Staphylococcus aureus = assay: Antimicrobial activity by the paper disc method; type: cell-based; conditions: 8 mm, 0.02 ml of a 300 μg/ml solution, trypticase-soy agar
Experimental: as §1

Proteus vulgaris = assay: Antimicrobial activity by the paper disc method; type: cell-based; conditions: 8 mm, 0.02 ml of a 300 μg/ml solution, trypticase-soy agar
Experimental: as §1

[1] = tested on: Helminthosporium sigmoidium var. irregulare; assay: Activity against microorganisms; type: cell-based
[2] = Preliminary acute toxicity test with mice; conditions: mouse, in vivo, ip, intraperitoneal
From the text: In a preliminary acute toxicity test with mice as test animals, which involved intraperitoneal injections of P-4.

P388 leukemia = assay: Antitumour activity upon P388 leukemia in mice; type: in vivo, mouse; conditions: 1×10^6 cells/animal i.p., 0.00625 mg/kg/day intraperitoneally for 9 consecutive days
From the text: The therapeutic effects of P-4 (dosed intraperitoneally for 9 consecutive days) upon P388 leukemia in mice (1×10^6 cells/animal, mouse, intraperitoneally transplanted) was investigated.

Sclerotinia screrotiorum = assay: Activity against microorganisms; type: cell-based

COc1cc2cc(c1Cl)N(C)C(=O)CC(OC(=O)CC(C)C)C1(C)OC1C(C)C1CC(O)(NC(=O)O1)C(OC)C=CC=C(C)C2 (stereo not drawn) [P-4]
had the activity: activity against Rhodotorula ruba (Rhodotorula ruba) | activity against Pellicularia sasakii (Pellicularia sasakii) | activity against Cryptococcus neoformans (Cryptococcus neoformans) | activity against Fusicladium levieri (Fusicladium levieri) | activity against Cochlioborus miyabeanus (Cochlioborus miyabeanus) | activity against Trichophyton rubrum (Trichophyton rubrum) | activity against Pyricularia oryzae (Pyricularia oryzae) | activity against Helminthosporium sigmoidium var. irregulare [1] | activity against Sclerotinia screrotiorum (Sclerotinia screrotiorum)
Soluble: Solubility (Solubility; in chloroform, ethyl acetate, acetone, ethanol, methanol, pyridine, tetrahydrofuran, dimethylsulfoxide)
no activity: activity against Proteus mirabilis (Proteus mirabilis) | activity against Bacillus subtilis (Bacillus subtilis) | activity against Pseudomonas aeruginosa (Pseudomonas aeruginosa) | activity against Klebsiella pneumoniae (Klebsiella pneumoniae) | activity against Mycobacterium avium (Mycobacterium avium) | activity against Bacillus cereus (Bacillus cereus) | activity against Escherichia coli (Escherichia coli) | activity against Serratia marcescens (Serratia marcescens) | activity against Staphylococcus aureus (Staphylococcus aureus) | activity against Proteus vulgaris (Proteus vulgaris)
180%: life-span-extending ratio (P388 leukemia)
> 0.313 mg/kg: LD50 [2]
Sparingly soluble: Solubility (Solubility; in benzene, ether)
Insoluble: Solubility (Solubility; in petr. ether, hexane, water)
